The test system of this experiment is mouse model of relapse-remitting type ulcerative colitis. Kind of experiment: Ulcer score of the large intestine in the mouse model of colitis induced by 1% DSS (Example 1). It counts as in vivo. The settings on record: day of completion; score 1 = ulcer of 1 mm^2 or larger; antibodies 0.5 mg/mouse intraperitoneally once; sulfasalazine 200 mg/kg orally once a day. The protocol: An aqueous solution of dextran sulfate (DSS) was administered to a mouse to induce relapse-remitting type ulcerative colitis. To this mouse model of relapse-remitting type ulcerative colitis, an anti-CD81 antibody was administered once and a relapse (recurrence)-inhibitory effect of single-dose administration of an anti-CD81 antibody on ulcerative colitis was examined by comparing with single-dose administration of an anti-TNF-α antibody and multiple-dose administration of sulfasalazine, both of which are the existing therapeutic agents.
Dextran sulfate (the product of TdB consultancy AB, an average molecular weight of 47,000) was dissolved in drinking water to prepare a 1% aqueous solution. […]
Four-week-old mice (BALB/cAnNCrj, male, the product of Charles River Laboratories Japan, Inc.) were purchased, and the mice in which no abnormality was found after six days of quarantine rearing were measured for body weight and then divided into six groups, where one group contained 10 mice. […]
On the day of completion of the experiment, 0.1 ml of a 2.5% brilliant blue 6B solution was administered to all groups of mice via tail vein. […] Subsequently, the large intestine was thoroughly washed with an ethanol solution and the size of ulcer was measured. […]

Structures are written as SMILES.

The record followed here is patent US20130004516A1, “DRUG FOR INFLAMMATORY BOWEL DISEASE” (DAINIPPON SUMITOMO PHARMA CO., LTD., priority 2010, published 2013).

Molecule `O=C(O)c1cc(/N=N/c2ccc(S(=O)(=O)Nc3ccccn3)cc2)ccc1O` [Sulfasalazine, sulfasalazine] yielded a Ulcer score of 0.1.
